For orientation: IC50 means the concentration at which inhibition is half-maximal.

We go through 1 molecule from BindingDB's records for doi:10.1016/j.bmcl.2017.05.059 (University of Mysore, 2017).

This experiment can be described thus: Inhibition of Vipera russelii venom sPLA2-induced hemolytic activity in human erythrocytes assessed as reduction hemoglobin release in presence of egg yolk preincubated for 5 mins followed by erythrocyte addition by spectrophotometric analysis.

For `COc1ccc(C2CC(c3ccco3)=Nc3ccccc3S2)cc1` (stereo unspecified), the IC50 was found to be 21.3 µM.
